# Entries after “also recorded” stand apart in the source; their conditions may differ.
# Legend:
# nigral neurons = conditions: various experimental models of PD; cited from earlier work
# [1] = tested on: L-DOPA-induced dyskinesia in Pitx3−/− mice; assay: L-DOPA-induced dyskinesia (AIMs), THCV co-administered daily with L-DOPA; format: in vivo; conditions: for duration of AIMs (three/four-paw dyskinetic movements): vs L-DOPA alone
# Experimental: Pitx3^−/− aphakia mice and their wildtype littermates, were genotyped using PCR amplification analysis of tail-tip DNA extracts. Mice were housed under a 12 h dark/light cycle with free access to food and water. They were used for experimental purposes at the age of 4-6 month-old (24-30 g of weight).
# (§1) In a first experiment, animals were treated with an i.p. injection of 10 mg/kg of benserazide hydrochloride followed 20 minutes later by a second i.p. injection of 10 mg/kg of L-DOPA methyl ester. Separate groups of animals received equivalent injections with vehicle (saline) used as controls. Both L-DOPA- and vehicle-treated mice received, 10 minutes after the second injection, a third i.p. injection of THCV (2 mg/kg) or vehicle (Tween 80-saline). The same treatment schedule was repeated daily during approximately two weeks.
# (§2) AIMs were assessed 30 and 60 min after L-DOPA administration. Dyskinesia was scored off-line by a blind rater based on video footage. Ratings were assessed for four minutes at each time point.
# (§3) Total dyskinesia was rated by adding the duration in seconds of all three-paw and four-paw dyskinetic bouts. Additionally, on odd days, individual mice were placed in actimeters and motor activity was assessed following drug administration.
# On Day 14, we evaluated AIMs every 20 min for 160 min after administering L-DOPA to determine the extinction of this response.
# Pitx3−/− mice [2] = assay: Locomotor activity (multicage activity meter); format: in vivo
# Experimental: as §1
# Horizontal and vertical activities were recorded, using a multicage activity meter system consisting of a set of 8 individual cages measuring 20×20×28 cm. Animals were introduced in the actimeter 60 minutes after L-DOPA injection and were assessed for 30 minutes. Horizontal movement was detected by 2 arrays of 16 infrared beams, whereas a third array positioned 4 cm above the floor detected vertical movement.
# The software is capable of differentiating between repetitive interruptions of the same photobeam and interruptions of adjacent photobeams. The latter measure was used as an index of ambulatory activity.
# Pitx3−/− mice [3] = assay: Rotarod test (motor coordination); format: in vivo; conditions: THCV co-administered with L-DOPA; after 12 days of daily treatment; vs L-DOPA
# Experimental: as §1
# Motor coordination was tested using a rotarod. The rotarod was set at a constant speed (10 revolutions per minute) and latency to fall from the rod was assessed. Cut off time was 180 seconds. Before testing, mice were previously habituated in one training session, as described previously.
# FosB = FosB immunostaining in striatum; format: in vivo, mice; conditions: chronic THCV with L-DOPA vs chronic L-DOPA
# Experimental: (§4) Following behavioral analysis, animals were euthanized 1 hour after the last injection of L-DOPA. The brains were post-fixed for 24 h and were then transferred to a solution of 0.1 M phosphate buffer containing 0.02% sodium azide for storage at 4° C. To obtain regular blocks, brains were further immersed in 3% agarose and cut in coronal sections (30 μm thick) using a vibratome.
# (§5) Immunostaining was carried out in free-floating sections using a standard avidin-biotin immunocytochemical protocol with the following rabbit antisera: (i) FosB (1:7500), and (ii) anti phospho(Ser10)-acetyl (Lys14)-Hystone 3 (pAcH3; 1:500).
# (§6) After incubation with primary antibody (overnight), the sections were washed and incubated with biotinylated secondary anti-rabbit antibody (1:500) for 1 h at room temperature. After washing, the sections were incubated with streptavidin for 1 h and antibody staining was developed using DAB.
# For immunostaining quantification in the completely denervated area, we used the Neurolucida software. […]
# (§7) Regarding the quantification of FosB and pAcH3 immunoreactivity, it was carried out using an image analysis system.
# (§8) For all sides, immunostaining intensity and number of immunolabeled nuclei were determined using five serial rostrocaudal sections per animal and three counting frames (dorsal, dorsolateral and lateral) per section (0.091 mm2 each frame). […]
# [4] = tested on: phospho(Ser10)-acetyl (Lys14)-Hystone 3 (pAcH3); assay: pAcH3 immunostaining in striatum; format: in vivo, mice; conditions: chronic THCV with L-DOPA vs chronic L-DOPA
# Experimental: as §4, §5, §6, §7
# as §8, with “frame). Images were digitized with Leica microscope under 40× lens. Before counting, images were thresholded at a standardized grey-scale level.” for “frame).”
# [5] = tested on: established L-DOPA-induced dyskinesia in Pitx3−/− mice; assay: Established L-DOPA-induced dyskinesia (AIMs), THCV started after about two weeks of L-DOPA; format: in vivo; conditions: 30 min after L-DOPA; for duration of L-DOPA-induced three/four-paw dyskinesia, established dyskinesia: THCV 2 mg/kg from day 14 after 13 days of L-DOPA, vs L-DOPA alone
# Experimental: In a second experiment, benserazide and L-DOPA (and their corresponding vehicles) were administered to mice following the same schedule than in the previous experiment, but THCV, again at the dose of 2 mg/kg, was given for the first time after approximately two weeks of daily benserazide/L-DOPA treatment, with the administration of the three compounds (and vehicles) extending for at least 3 days.
# as §2, §3
# parkinsonian rats = conditions: acute treatment; cited from earlier work
# [6] = tested on: 6-hydroxydopamine rat model of Parkinson's disease; conditions: oral coadministration of L-DOPA and rimonabant; cited from earlier work
# [7] = THCV co-administered with L-DOPA, 60 min after L-DOPA, vs L-DOPA
structure (smiles),measurement,setting,value
"C=C(C)[C@@H]1CCC(C)=C[C@H]1c1c(O)cc(CCCCC)cc1O [CBD, cannabidiol]",protection of nigral neurons from death caused by different insults,nigral neurons,able to protect nigral neurons from death
CCCCC/C=C\C/C=C\C/C=C\C/C=C\CCCC(=O)Nc1ccc(O)cc1 [AM404],protection of nigral neurons from death caused by different insults,nigral neurons,able to protect nigral neurons from death
"CCCCCc1cc(O)c2c(c1)OC(C)(C)[C@@H]1CCC(C)=C[C@@H]21 [THC, tetrahydrocannabinol]",protection of nigral neurons from death caused by different insults,nigral neurons,able to protect nigral neurons from death
"CCCc1cc(O)c2c(c1)OC(C)(C)[C@@H]1CCC(C)=C[C@@H]21 [THCV, tetrahydrocannabivarin]",duration of AIMs (three/four-paw dyskinetic movements),"[1]; 30 min post-L-DOPA, THCV 2 mg/kg i.p. daily with L-DOPA 10 mg/kg i.p., except days 1 and 3",attenuates dyskinesia; also recorded: reduced the duration of AIMs
same,duration of AIMs (three/four-paw dyskinetic movements),"[1]; 60 min post-L-DOPA, THCV 2 mg/kg i.p. daily with L-DOPA",to a lesser extent; also recorded: significant differences only at days 7 and 13 of treatment
same,dyskinetic movements with THCV alone,"[1]; THCV 2 mg/kg i.p. alone, no L-DOPA",showed no dyskinetic movements
same,"dyskinesias score, acute co-treatment","[1]; day 1 of treatment, 30 min and 60 min, THCV 2 mg/kg with L-DOPA","decreases, but not significantly"
same,time post-treatment up to which difference from L-DOPA alone remained (kinetic profile of AIMs),"[1]; last day of treatment, AIMs every 20 min over 160 min",up to 80 minutes
same,horizontal activity,Pitx3−/− mice [2]; THCV alone vs vehicle,no effect on the horizontal activity
same,vertical activity,Pitx3−/− mice [2]; THCV alone vs vehicle,did elevate vertical activity by itself
same,horizontal activity,Pitx3−/− mice [2]; [7],attenuating the elevated horizontal and vertical activities
same,vertical activity,Pitx3−/− mice [2]; [7],attenuating the elevated horizontal and vertical activities
same,rotarod performance (latency to fall),Pitx3−/− mice [3],improved motor coordination in rotarod; also recorded: improved the deteriorated rotarod performance
same,immunostaining intensity of FosB-positive cells in striatum,FosB,attenuates the immunostaining-intensity of FosB positive nuclei; also recorded: reduction affected both the number and the immunostaining intensity
same,number of FosB-positive cells in striatum,FosB,attenuates the increased expression of FosB-positive cells; also recorded: reduction affected both the number and the immunostaining intensity
same,immunostaining intensity of pAcH3-positive nuclei in striatum,[4],decreases the intensity of nuclei; also recorded: beneficial effects
same,number of pAcH3-positive nuclei in striatum,[4],only evident in the intensity of immunostained-nuclei
same,persistence of the reduction of established dyskinesia,[5]; THCV 2 mg/kg,3 days
same,"duration of L-DOPA-induced three/four-paw dyskinesia, established dyskinesia",[5],significantly reduced dyskinesia
same,"duration of L-DOPA-induced three/four-paw dyskinesia, established dyskinesia",[5]; listed as Δ9-THCV,active in reducing the duration of L-DOPA-induced three/four-paw dyskinesia
same,motor inhibition,parkinsonian rats,efficacious in reducing motor inhibition
same,potency in reducing motor inhibition relative to rimonabant,parkinsonian rats,equivalent to rimonabant
"CCCCCCC(C)(C)c1ccc([C@@H]2C[C@H](O)CC[C@H]2CCCO)c(O)c1 [CP55,940]",protection of nigral neurons from death caused by different insults,nigral neurons,able to protect nigral neurons from death
Cc1c(C(=O)NN2CCCCC2)nn(-c2ccc(Cl)cc2Cl)c1-c1ccc(Cl)cc1 [rimonabant],abnormal involuntary movements and dystonia,[6],decreased abnormal involuntary movements and dystonia

# Source: patent publication US12350253B2, “Use of cannabinoids in the treatment of dyskinesia associated with parkinson's disease” (Jazz Pharmaceuticals Research UK Limited, priority 2019, dated 2025)
